Assay results as given in patent publication US9399194B2, “Methods for treating a liquid using draw solutions” (priority 2014, dated 2016).
Values joined by “and” are separate entries in the source; they are usually repeats but may differ in a detail not shown here. Equal entries are not always repeated.

Tests used:
[1] = Freezing point depression osmometry: maximum concentration and osmotic pressure; format: physicochemical; conditions: for maximum osmotic pressure (projected): full/high concentration, projected from dilute solution freezing point data
Method: (§1) House deionized (DI) water was used in all experiments. CHP was obtained from Alfa Aesar and used as received. All equipment was used in accordance with manufacturer specifications unless stated otherwise. Freezing point depression osmometry was performed using an Advanced Instruments, Inc. Model 3250 Osmometer. Viscosity measurements were made using the falling bob method with a Cambridge Applied Systems VL4100 viscometer.
The diamond symbols indicate molality of amine and ammonium ions. The square symbols indicate the total species molality including amines, ammonium ions, and carbonate species. […] There is strong evidence that as osmotic pressures increase, there are diminishing returns in terms of kinetics for osmotic flux. For any osmotic pressure over 370 atm, the osmotic pressure of a saturated NaCl solution is likely to be less important than solute and solution properties like diffusion and viscosity.
The maximum osmotic pressures of different tertiary amines were determined by osmometry.

[2] = Draw solution degassing monitored by freezing point osmometry; format: physicochemical; conditions: for temperature needed to degas: ambient atmospheric pressure, comparable kinetics
Description: To determine the relative performance of CHP and DMCA at different temperatures, draw solutions containing CHP or DMCA were recirculated through a segment of a heat exchanger featuring a high surface area honeycomb composition design with a temperature regulated fluid recirculated through the other path. Concentration data was collected with a freezing point osmometer by conventional techniques. Osmolality is an excellent predictor for the pressure needed to remove dissolved solids by filtration. Generally, 1 Osm/Kg corresponds to about 24.5 atm.
Upon addition of one atm of CO2 to the draw solution of Example 1, the oily, nonpolar CHP readily produced the corresponding polar ammonium bicarbonate acid-base salt. To test the degassing process, CHP-ammonium bicarbonate solutions were recirculated through a high surface area heat exchanger with a gear pump while the other loop of the heat exchanger was attached to a recirculating heat bath that was set to the desired temperature. The experiment progression was monitored with a freezing point osmometry. The degassing process was intended to reduce the solution osmotic pressure, reducing it to nothing or minimizing it for a low pressure RO treatment. The progress of the degassing reaction was measured by osmometry, which corresponds to osmotic pressure and can be rapidly obtained. For comparison, a draw solution including DMCA-H^+ was also investigated. In the case of DMCA at full concentration, it will start degassing at a temperature as low as 25° C., requiring viscosity measurements to be made at 15° C. However, DMCA requires nearly reflux conditions to fully remove the CO2.

[3] = at 25° C.; cited from earlier work
[4] = Viscosity and density of the CHP-H+ draw solution; format: physicochemical
Method: as §1
DI water (229.7 g) and CHP (221.2 g, 1.32 mol) were placed in a bottle equipped with a gas diffuser and exposed to a steady stream of carbon dioxide for 3 hours while being stirred with a magnetic stir bar. The resulting product was a clear homogeneous solution with a mass of 491.4 g, a solution viscosity of 44.0 cP at 15.0° C., and a density of 1.09 g/ml at 21° C. After exposure to the carbon dioxide, the solution contained CHP-H^+ (i.e., CHP in its polar form).

[5] = Forward osmosis flux experiments (FO mode) against pure water; conditions: about 30 wt % CHP-H+ or 0.9 mol/kg NaCl against pure water, identical membranes
Method: All flux experiments were conducted in “FO mode” with the membrane's active layer facing the feed solution. The process was allowed 1-5 minutes to equilibrate and the average of the next 10 minutes was reported as the “initial flux.”
Using identical membranes and test conditions, the water flux for CHP-H^+ was 10 kg/m^2 hr compared with 10 kg/m^2 hr for the NaCl solution.

[6] = saturated NaCl solution; cited from earlier work

In the case of C1CCC(N2CCCCC2)CC1 [CHP, 1-cyclohexylpiperidine], the “amine:carbonic acid ratio” value [1] is reported as 1.00, the maximum osmotic pressure ([1]; by osmometry, FIG. 4) is reported as “greater than 250 atm” and the “maximum osmotic pressure (projected)” value [1] is reported as 536 atm and > 500 atm. For the same compound, the “temperature needed to degas” value [2] was “about 70 °C” and the vapor pressure [3] was “about 0.1 mm Hg”.

With C1CCC(N2CCCCC2)CC1 [CHP-H^+] the solution viscosity ([4]; draw solution of Example 1, at 15.0° C.) was 44.0 cP, the density ([4]; draw solution of Example 1, at 21° C.) was 1.09 g/mL and the “maximum osmotic pressure (projected)” value [1] was “greater than 500 atm”. For the same compound, the “water flux (initial flux)” value [5] was 10 kg/m^2 hr, the osmolality after degassing ([2]; 70° C., after extended treatment) was 0.2 Osm/Kg and the osmolality after degassing ([2]; 70° C., within 3 hours) was 0.6 Osm/Kg.

In the case of CN(C)C1CCCCC1 [DMCA, N,N-dimethylcyclohexylamine], the “temperature needed to degas” value [2] is listed as “about 95 °C”, the “temperature at which degassing starts” value ([2]; full concentration) is listed as 25 °C and the vapor pressure [3] is listed as “about 2.2 mm Hg”.

For CN(C)C1CCCCC1.O=C(O)O [DMCA-H^+, dimethylcyclohexylammonium bicarbonate], the “maximum osmotic pressure (projected)” value [1] was roughly 835 atm, the osmolality after degassing ([2]; 70° C., after 4-6 hours) was 2.4 Osm/Kg and the osmolality after degassing ([2]; 95° C., after 6.5 hours) was 0.2 Osm/Kg.

For [Cl-].[Na+] [NaCl, reference compound], the “water flux (initial flux)” value [5] is given as 10 kg/m^2 hr and the osmotic pressure [6] is given as 370 atm.
